Target: T1, M2 muscarinic receptor (Homo sapiens, UniProt P08172)
T1 sequence (P08172 1-466): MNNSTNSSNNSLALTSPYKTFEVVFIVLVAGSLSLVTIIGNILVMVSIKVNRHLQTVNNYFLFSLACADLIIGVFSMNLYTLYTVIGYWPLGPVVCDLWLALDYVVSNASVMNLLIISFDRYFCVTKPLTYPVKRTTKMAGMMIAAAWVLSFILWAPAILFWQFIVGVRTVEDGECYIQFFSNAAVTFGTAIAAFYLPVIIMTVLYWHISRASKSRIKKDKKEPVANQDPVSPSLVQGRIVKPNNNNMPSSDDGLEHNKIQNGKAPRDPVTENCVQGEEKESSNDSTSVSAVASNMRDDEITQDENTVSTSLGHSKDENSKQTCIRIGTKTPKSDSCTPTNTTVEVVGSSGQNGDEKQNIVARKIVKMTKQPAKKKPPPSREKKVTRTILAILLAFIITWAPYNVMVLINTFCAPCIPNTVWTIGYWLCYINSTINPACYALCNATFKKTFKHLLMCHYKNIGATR
Experiment: accumulation of cAMP at PTX-treated CHO cells expressing M2
Assay type: cell-based
Design: host or cells: CHO cells, stably transfected
Conditions: for change in accumulation of cAMP: PTX-treated M2 CHO cells, forskolin-stimulated and basal, in words
Method: (§1) To exclude the possibility that activation of the non-preferential Gs pathway was obscured by activation of the preferential Gi/o pathway, accumulation of cAMP was measured in CHO cells expressing M2 or M4 receptors where Gi/o G-proteins were inactivated by pertussis toxin (PTX) treatment (FIG. 4).
Cell culture and membrane preparation: Chinese hamster ovary (CHO) cells stably transfected with the genes of individual human variants of muscarinic receptors were purchased from Missouri S&T cDNA Resource Center (Rolla, Mo., USA). Fresh primary cell culture of smooth muscle cells (SMC) from rat aorta prepared as previously described was kindly provided by Dr. Lucie Bačáková. Primary culture of SMCs was grown to confluency in 75 cm^2 flasks in Dulbecco's modified Eagle's medium supplemented with 10% fetal bovine serum. Up to 6-times, 2 million of cells were sub-cultured. […] Cells were grown to confluency in 75 cm^2 flasks in Dulbecco's modified Eagle's medium supplemented with 10% fetal bovine serum and 2 million of cells were subcultured in 100 mm Petri dishes. Medium was supplemented with 5 mM butyrate for the last 24 hours of cultivation to increase receptor expression. When needed, cells were cultivated with pertussis toxin at a final concentration of 25 ng/ml for the 24 hours. Cells were detached by mild trypsinization on day 5 after subculture. Detached cells were washed twice in 50 ml of phosphate-buffered saline and 3 min centrifugation at 250×g. […]
Measurements of the production of cAMP and inositol phosphates: Levels of second messengers cAMP and inositol phosphates were determined in radiochemical chromatography assays as described previously. […] Samples were applied to alumina columns (1.5 g of alumina per column), washed with 2 ml ammonium acetate (pH=7.0) and eluted from columns with 4 ml ammonium acetate and measured by liquid scintillation spectrometry. […] After separation of water and organic phases, 0.6 ml of water phase was applied to Dowex columns (1.5 g of Dowex per column), washed by 20 ml of 60 mM ammonium formate/5 mM sodium borate buffer and eluted from columns with 4 ml of 1M ammonium formate/0.1 formic acid buffer and measured by liquid scintillation spectrometry.
as §1, with “[…]” for “Gs”, “11). […]” for “4).”

Row | Compound | change in accumulation of cAMP | EC50 in PTX treated cells versus non-treated cells (M2)
1 | C[N+]1(Cc2cccs2)CC=CCC1.[I-] (stereo not shown) [Compound 7A, 1-methyl-1-[(thiophen-2-yl)methyl]-1,2,3,6-tetrahydropyridin-1-ium iodide] | did not change cAMP levels | –
2 | C1=CCN(Cc2cccs2)CC1.Cl [Compound 6A, 1-[(thiophen-2-yl)methyl]-1,2,3,6-tetrahydropyridin-1-ium chloride] | did not change cAMP levels | –
3 | C[N+](C)(C)CCOC(N)=O [carbachol, reference compound] | about two-fold increase | the same
